Measured values reported in ChEMBL document CHEMBL1201862, “PubChem BioAssay data set” (2004).
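How tested: cells in 96-well plates exposed to compound for 48 hours at five concentrations. GI50 = concentration required for 50% inhibition of growth.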 Activity calls are given as the source filed them. Cut-off read from the data, not from the text of the source: active = GI50 up to about 1.1 µM and inactive = higher.

Assays:
Experiment in all cases: inhibition of tumour cell growth, NCI panel, 48 h
[1] = tested on: NCI-H23
[2] = tested on: UACC-62
[3] = tested on: HT-29
[4] = tested on: NCI-H226
[5] = tested on: HOP-62
[6] = tested on: MOLT-4
[7] = tested on: IGROV-1
[8] = tested on: U-251
[9] = tested on: HCT-116
[10] = tested on: HCT-15
[11] = tested on: LOX IMVI
[12] = tested on: COLO 205
[13] = tested on: TK-10
[14] = tested on: SK-MEL-2
[15] = tested on: Malme-3M
[16] = tested on: DLD-1
[17] = tested on: SN12C
[18] = tested on: CAKI-1
[19] = tested on: RPMI-8226

| SMILES | GI50 [1] | GI50 [2] | GI50 [3] | GI50 [4] | GI50 [5] | GI50 [6] | GI50 [7] | GI50 [8] | GI50 [9] | GI50 [10] [µM] | GI50 [11] | GI50 [12] | GI50 [13] | GI50 [14] | GI50 [15] | GI50 [16] | GI50 [17] | GI50 [18] | GI50 [19] |
| --- | --- | --- | --- | --- | --- | --- | --- | --- | --- | --- | --- | --- | --- | --- | --- | --- | --- | --- | --- |
| C/C(=N/NC(N)=S)c1ccc2ccccc2c1 | 29.7 µM (inactive) | 9.42 µM (inactive) | 19.7 µM (inactive) | 39.8 µM (inactive) | 46.6 µM (inactive) | 21.9 µM (inactive) | 32.7 µM (inactive) | 24.8 µM (inactive) | 23.8 µM (inactive) | 22.2 | 39.8 µM (inactive) | 21.4 µM (inactive) | 74.6 µM (inactive) | 15.8 µM (inactive) | 41 µM (inactive) | 21.2 µM (inactive) | 32.7 µM (inactive) | – | – |
| CCc1cccc(C(C)C)c1N1C(=O)C(=O)C(c2nc3ccccc3s2)C(=O)C1=O | 27.9 µM (inactive) | > 50 µM (inactive) | > 30.6 µM (inactive) | – | > 50 µM (inactive) | 12.6 µM (inactive) | > 50 µM (inactive) | > 48.3 µM (inactive) | 20 µM (inactive) | 29.4 | > 46.2 µM (inactive) | 16.8 µM (inactive) | > 50 µM (inactive) | > 50 µM (inactive) | > 26.2 µM (inactive) | 20.5 µM (inactive) | > 50 µM (inactive) | > 50 µM (inactive) | 18.3 µM (inactive) |
| CC(C)(CN1CCOCC1)C(=O)/C=C/c1ccc(/C=C/C(=O)C(C)(C)CN2CCOCC2)cc1 | 1.58 µM (inactive) | 1.56 µM (inactive) | 0.467 µM (active) | 2.29 µM (inactive) | 2.46 µM (inactive) | 0.281 µM (active) | 2.09 µM (inactive) | 1.24 µM (inactive) | 0.408 µM (active) | 0.297 | 0.393 µM (active) | 1.64 µM (inactive) | 1.86 µM (inactive) | – | 2.12 µM (inactive) | 0.338 µM (active) | 1.35 µM (inactive) | 1.4 µM (inactive) | 2.7 µM (inactive) |
| c1ccc(P(=Nc2ccccc2N=P(c2ccccc2)(c2ccccc2)c2ccccc2)(c2ccccc2)c2ccccc2)cc1 | 0.337 µM (active) | 0.562 µM (active) | 1.3 µM (inactive) | 0.337 µM (active) | 0.558 µM (active) | – | 0.498 µM (active) | 0.326 µM (active) | 0.593 µM (active) | – | 0.612 µM (active) | 1.65 µM (inactive) | 0.54 µM (active) | – | 0.256 µM (active) | 1.47 µM (inactive) | 0.293 µM (active) | 0.444 µM (active) | 1.74 µM (inactive) |
| O=C(/C=C/c1ccc(O)cc1)c1cc(Cl)ccc1O | 40.5 µM (inactive) | 40.3 µM (inactive) | 34.5 µM (inactive) | 95.9 µM (inactive) | > 100 µM (inactive) | 16.6 µM (inactive) | 57.4 µM (inactive) | 37.8 µM (inactive) | 22.6 µM (inactive) | – | 18.7 µM (inactive) | > 100 µM (inactive) | > 100 µM (inactive) | – | 47.2 µM (inactive) | 43.6 µM (inactive) | 42.4 µM (inactive) | > 100 µM (inactive) | – |
| O=C(N/C(=C\c1ccc(/C=C(\NC(=O)c2ccccc2)c2nc3cc([N+](=O)[O-])ccc3[nH]2)cc1)c1nc2cc([N+](=O)[O-])ccc2[nH]1)c1ccccc1 | 25.4 µM (inactive) | 15.4 µM (inactive) | 30.3 µM (inactive) | – | > 100 µM (inactive) | 11 µM (inactive) | 82.8 µM (inactive) | 54.6 µM (inactive) | 28.1 µM (inactive) | 49.8 | 28.8 µM (inactive) | 29.8 µM (inactive) | 32.1 µM (inactive) | 14.9 µM (inactive) | > 100 µM (inactive) | 43.8 µM (inactive) | 71.3 µM (inactive) | > 100 µM (inactive) | 12 µM (inactive) |
| CSc1nsc(-c2ccccc2)[s+]1.[O-][Cl+3]([O-])([O-])[O-] | – | > 100 µM (inactive) | – | > 100 µM (inactive) | > 100 µM (inactive) | > 100 µM (inactive) | > 100 µM (inactive) | > 100 µM (inactive) | > 100 µM (inactive) | > 100 | – | > 100 µM (inactive) | > 100 µM (inactive) | > 100 µM (inactive) | > 100 µM (inactive) | > 100 µM (inactive) | > 100 µM (inactive) | > 100 µM (inactive) | > 100 µM (inactive) |
| COC(=O)C(Cc1cc(OC)c(OC)c(OC)c1)C(=O)OC | > 320 µM (inactive) | > 320 µM (inactive) | > 320 µM (inactive) | – | > 320 µM (inactive) | > 320 µM (inactive) | > 320 µM (inactive) | > 320 µM (inactive) | – | > 320 | > 320 µM (inactive) | > 320 µM (inactive) | > 320 µM (inactive) | > 320 µM (inactive) | > 320 µM (inactive) | > 320 µM (inactive) | > 320 µM (inactive) | > 320 µM (inactive) | > 320 µM (inactive) |
